Source: patent US20220281930A1, “COMPOSITIONS AND METHODS FOR THE TREATMENT OF PATHOLOGICAL PAIN AND ITCH” (DUKE UNIVERSITY, priority 2019, published 2022)

Key:
EGABA = test: Perforated patch EGABA in SCDH lamina-II neurons of treated mice; assay type: in vivo, mouse; conditions: slices of PSNL juvenile mice treated with KP 30 mg/kg
KCC2 = test: Immuno-cytochemistry morphometry of primary human cortical neurons, KCC2; assay type: cell-based; conditions: 400 nM KP
Description: The neuron-enriched cultures were established from fetal cortical specimens at 15-20 weeks of gestation. The protocols for tissue processing complied with all federal and institutional guidelines. The cultures were plated on PEI (polyethyleneimine solution) substrate and maintained in Neurobasal media supplemented with B27 as previously described (Pelsman et al., 2003, International journal of developmental neuroscience 21:117-124; Yeo et al., 2013, Proc Natl Acad Sci USA 110:4315-4320).
For immunostaining, the cultures were treated for 2-4 days with vehicle or 400 nM KP, fixed with 4% PFA at day 10, and processed for double-staining with anti-KCC2 and anti-synaptophysin or anti-NeuN (see Table 1).
The 0.34 micrometer confocal slices through entire cell layers at different optical fields (n=17-28 for each group) of the fixated cultures were acquired using a Zeiss LSM700 confocal microscope.
Image Z-stacks were analyzed using Imaris 9.2.1 software. Optical density intensity sum values for each stack/channel were divided by corresponding data volumes and the resulting values were normalized to the number of specifically labeled cells within each stack. There were no significant differences in the number of cells between vehicle and KP-treated groups.

neuronal [Cl—]i = test: Clomeleon chloride imaging in rat primary cortical neurons; assay type: cell-based
Description: Chloride imaging of primary cultured cortical neurons was conducted as previously described (Kuner and Augustine, 2000, Neuron 27:447-459; Liedtke et al., 2013, Small 9:1066-1075; Yeo et al., 2009, J Neurosci 29:14652-14662). A Clomeleon expression plasmid was transfected into primary cortical neurons by electroporation (Amaxa Nucleofector Device). Transfected neurons were verified by yellow fluorescent protein (YFP) fluorescence, and ratiometric images (excitation at λ=434 nm, dual emission at λ=485 and 535 nm; for resting chloride, six stable frames at […] were captured, which were averaged) were acquired using RATIOTOOL program. Calibration of Clomeleon signals (535 nm/485 nm emission ratio) was performed by using tributyltin-nigericin to establish a standard curve, which was then normalized for measured intraneuronal pH to take into account the pH sensitivity of Clomeleon.

δ-cat S259 = test: Phosphoproteomics in rat primary cortical neurons, δ-cat; assay type: cell-based; conditions: 1 μM KP; after 1 h, sustained at 24 h
Description: Cultured rat primary cortical neurons were treated with either vehicle DMSO (0.1%) or 1 μM KP for 1 h/24 h. Cells were lysed in non-detergent-containing buffer (Tris.Cl pH8 50 mM, NaCl 150 mM, 0.5% Phosphatase Inhibitor (Pierce #88667) and Protease Inhibitor (Roche #11836153001)). 500 μL was removed and solid urea was added to a final concentration of 8M. Samples were sonicated for further solubilization. After clearing of insoluble material by centrifugation, protein concentration was measured by Bradford assay. 250 μg of total protein was removed from each sample and solubilization buffer was added to normalize all samples to 0.93 μg/μL protein. Samples were then spiked with bovine alpha-casein to 30 fmol/μg of total protein. Samples were reduced with 10 mM DTT at 32° C. for 45 min and then alkylated with 20 mM iodoacetamide at room temperature for 30 min. […]
TiO2 Enrichment. […] After cleanup using a C18 STAGE tip, and resuspension in 2% acetonitrile, 0.1% TFA, 10 mM citric acid samples were quantified.
Quantitative analysis of Phosphopeptide Enriched Samples. Quantitative LC-MS/MS was performed in singlicate (4 uL=33% of the total sample each injection) for phosphopeptide-enriched samples using a nanoAcquity UPLC system (Waters Corp) coupled to a Thermo QExactive Plus high resolution accurate mass tandem mass spectrometer (Thermo) via a nanoelectrospray ionization source. […]

**Q.** Which results are given for `O=C1Cc2c([nH]c3ccc(Br)cc23)-c2ccccc2N1` [kenpaullone, 9-bromo-7,12-dihydro-indolo [3,2-d] [1]benzazepin-6(5H)-one]?
**A.** EGABA (EGABA): significant hyperpolarization; increased KCC2 expression relative to vehicle (KCC2): 62%; KCC2 chloride transporter mediated chloride efflux (neuronal [Cl—]i; KP vs vehicle at 10 min and 20 min time-points): does not enhance; neuronal [Cl—]i (neuronal [Cl—]i; clomeleon, after KP treatment vs vehicle): robustly and significantly reduced; time to enhanced KCC2 gene expression and KCC2 chloride extrusion function (neuronal [Cl—]i; rat neurons, FIG. 2D): ≤ 3 h; S259 phosphorylation of δ-cat (δ-cat S259): significant de-phosphorylation
